Results from the supplement of paper PMC10307832.

Assays:
Test in all cases: relative viability (nuclei count vs DMSO), 5 days (fraction); higher = more cells survive
LOU-NH91 = test system: LOU-NH91
How it was run: (§1)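 Each reported value is a median over duplicate plates. It expresses relative viability: treated-well nuclei count divided by vehicle-well nuclei count. Lung cancer cell lines in 1536-well plates were dosed by pin tool a day after seeding, alone with one drug or with a fixed anchor-drug dose plus five library-drug doses (not always all listed) in √10 steps, and nuclei were counted after 5 days.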

NCI-H1355 = test system: NCI-H1355
How it was run: as §1

NCI-H838 = test system: NCI-H838
How it was run: as §1

HCC-366 = test system: HCC-366
How it was run: as §1

CAL-12T = test system: CAL-12T
How it was run: as §1

NCI-H1755 = test system: NCI-H1755
How it was run: as §1

NCI-H460 = test system: NCI-H460
How it was run: as §1

HCC-44 = test system: HCC-44
How it was run: as §1

NCI-H1563 = test system: NCI-H1563
How it was run: as §1

NCI-H2085 = test system: NCI-H2085
How it was run: as §1

NCI-H1651 = test system: NCI-H1651
How it was run: as §1

NCI-H1975 = test system: NCI-H1975
How it was run: as §1

BEN = test system: BEN
How it was run: as §1

LCLC-103H = test system: LCLC-103H
How it was run: as §1

NCI-H1650 = test system: NCI-H1650
How it was run: as §1

NCI-H1437 = test system: NCI-H1437
How it was run: as §1

NCI-H1734 = test system: NCI-H1734
How it was run: as §1

HCC-15 = test system: HCC-15
How it was run: as §1

EKVX = test system: EKVX
How it was run: as §1

NCI-H441 = test system: NCI-H441
How it was run: as §1

NCI-H2023 = test system: NCI-H2023
How it was run: as §1

## Clc1ccc(Nc2nnc(Cc3ccncc3)c3ccccc23)cc1 [Vatalanib] + CC(C)C[C@H](NC(=O)[C@H](Cc1ccccc1)NC(=O)c1cnccn1)B(O)O [Bortezomib] (partner 0.002 µM)
LOU-NH91; first compound 0.04 µM
  relative viability: 0.491
LOU-NH91; first compound 0.1265 µM
  relative viability: 0.43
LOU-NH91; first compound 0.4 µM
  relative viability: 0.464
LOU-NH91; first compound 1.265 µM
  relative viability: 0.493
LOU-NH91; first compound 4 µM
  relative viability: 0.468
NCI-H1355; first compound 0.04 µM
  relative viability: 1.18
NCI-H1355; first compound 0.1265 µM
  relative viability: 1.22
NCI-H1355; first compound 0.4 µM
  relative viability: 1.21
NCI-H1355; first compound 1.265 µM
  relative viability: 1.09
NCI-H1355; first compound 4 µM
  relative viability: 1.1
NCI-H838; first compound 0.04 µM
  relative viability: 0.973
NCI-H838; first compound 0.1265 µM
  relative viability: 0.99
NCI-H838; first compound 0.4 µM
  relative viability: 0.805
NCI-H838; first compound 1.265 µM
  relative viability: 0.68
NCI-H838; first compound 4 µM
  relative viability: 0.798
HCC-366; first compound 0.04 µM
  relative viability: 1.09
HCC-366; first compound 0.1265 µM
  relative viability: 0.924
HCC-366; first compound 0.4 µM
  relative viability: 1.03
HCC-366; first compound 1.265 µM
  relative viability: 1.06
HCC-366; first compound 4 µM
  relative viability: 1.05
CAL-12T; first compound 0.04 µM
  relative viability: 0.933
CAL-12T; first compound 0.1265 µM
  relative viability: 0.774
CAL-12T; first compound 1.265 µM
  relative viability: 0.988
CAL-12T; first compound 4 µM
  relative viability: 1.05
NCI-H1755; first compound 0.04 µM
  relative viability: 0.938
NCI-H1755; first compound 0.1265 µM
  relative viability: 0.926
NCI-H1755; first compound 0.4 µM
  relative viability: 0.992
NCI-H1755; first compound 1.265 µM
  relative viability: 0.88
NCI-H1755; first compound 4 µM
  relative viability: 0.974
NCI-H460; first compound 0.04 µM
  relative viability: 1.07
NCI-H460; first compound 0.1265 µM
  relative viability: 0.919
NCI-H460; first compound 0.4 µM
  relative viability: 1.03
NCI-H460; first compound 1.265 µM
  relative viability: 1.03
NCI-H460; first compound 4 µM
  relative viability: 1.02
HCC-44; first compound 0.04 µM
  relative viability: 0.92
HCC-44; first compound 0.1265 µM
  relative viability: 0.855
HCC-44; first compound 0.4 µM
  relative viability: 0.903
HCC-44; first compound 1.265 µM
  relative viability: 0.828
HCC-44; first compound 4 µM
  relative viability: 0.857
NCI-H1563; first compound 0.04 µM
  relative viability: 0.868
NCI-H1563; first compound 0.1265 µM
  relative viability: 0.855
NCI-H1563; first compound 0.4 µM
  relative viability: 1.09
NCI-H1563; first compound 1.265 µM
  relative viability: 0.814
NCI-H1563; first compound 4 µM
  relative viability: 0.732
NCI-H2085; first compound 0.04 µM
  relative viability: 1.07
NCI-H2085; first compound 0.1265 µM
  relative viability: 0.952
NCI-H2085; first compound 0.4 µM
  relative viability: 1.08
NCI-H2085; first compound 1.265 µM
  relative viability: 0.995
NCI-H2085; first compound 4 µM
  relative viability: 0.947
NCI-H1651; first compound 0.04 µM
  relative viability: 0.906
NCI-H1651; first compound 0.1265 µM
  relative viability: 0.917
NCI-H1651; first compound 0.4 µM
  relative viability: 0.959
NCI-H1651; first compound 1.265 µM
  relative viability: 0.941
NCI-H1651; first compound 4 µM
  relative viability: 0.969
NCI-H1975; first compound 0.04 µM
  relative viability: 0.407
NCI-H1975; first compound 0.1265 µM
  relative viability: 0.352
NCI-H1975; first compound 0.4 µM
  relative viability: 0.422
NCI-H1975; first compound 1.265 µM
  relative viability: 0.374
NCI-H1975; first compound 4 µM
  relative viability: 0.379
BEN; first compound 0.04 µM
  relative viability: 0.851
BEN; first compound 0.1265 µM
  relative viability: 0.682
BEN; first compound 0.4 µM
  relative viability: 0.906
BEN; first compound 1.265 µM
  relative viability: 0.665
BEN; first compound 4 µM
  relative viability: 0.806
LCLC-103H; first compound 0.04 µM
  relative viability: 1.07
LCLC-103H; first compound 0.1265 µM
  relative viability: 1.12
LCLC-103H; first compound 0.4 µM
  relative viability: 1.07
LCLC-103H; first compound 1.265 µM
  relative viability: 1.01
LCLC-103H; first compound 4 µM
  relative viability: 1.13
NCI-H1650; first compound 0.04 µM
  relative viability: 0.196
NCI-H1650; first compound 0.1265 µM
  relative viability: 0.217
NCI-H1650; first compound 0.4 µM
  relative viability: 0.206
NCI-H1650; first compound 1.265 µM
  relative viability: 0.174
NCI-H1650; first compound 4 µM
  relative viability: 0.195
NCI-H1437; first compound 0.04 µM
  relative viability: 0.57
NCI-H1437; first compound 0.1265 µM
  relative viability: 0.577
NCI-H1437; first compound 0.4 µM
  relative viability: 0.507
NCI-H1437; first compound 1.265 µM
  relative viability: 0.445
NCI-H1437; first compound 4 µM
  relative viability: 0.495
NCI-H1734; first compound 0.04 µM
  relative viability: 1.02
NCI-H1734; first compound 0.1265 µM
  relative viability: 1.04
NCI-H1734; first compound 0.4 µM
  relative viability: 1.15
NCI-H1734; first compound 1.265 µM
  relative viability: 0.827
NCI-H1734; first compound 4 µM
  relative viability: 0.893
HCC-15; first compound 0.04 µM
  relative viability: 1.15
HCC-15; first compound 0.1265 µM
  relative viability: 1.03
HCC-15; first compound 0.4 µM
  relative viability: 1.03
HCC-15; first compound 1.265 µM
  relative viability: 0.978
HCC-15; first compound 4 µM
  relative viability: 1.04
EKVX; first compound 0.04 µM
  relative viability: 1.1
EKVX; first compound 0.1265 µM
  relative viability: 0.647
EKVX; first compound 0.4 µM
  relative viability: 1.22
EKVX; first compound 1.265 µM
  relative viability: 0.984
EKVX; first compound 4 µM
  relative viability: 0.848
NCI-H441; first compound 0.04 µM
  relative viability: 0.421
NCI-H441; first compound 0.1265 µM
  relative viability: 0.444
NCI-H441; first compound 0.4 µM
  relative viability: 0.52
NCI-H441; first compound 1.265 µM
  relative viability: 0.448
NCI-H441; first compound 4 µM
  relative viability: 0.448
NCI-H2023; first compound 0.04 µM
  relative viability: 1.02
NCI-H2023; first compound 0.1265 µM
  relative viability: 0.837
NCI-H2023; first compound 0.4 µM
  relative viability: 1.02
NCI-H2023; first compound 1.265 µM
  relative viability: 0.946
NCI-H2023; first compound 4 µM
  relative viability: 0.695
